Results published in patent US20020061902A1, “Treatment method” (SCHERING CORPORATION, priority 2000, published 2002).

Tests used:
eosinophils = assay: PAF-induced eosinophil chemotaxis (blind well-chamber technique); format: cell-based, human; conditions: 10 μM desloratadine; 1 μM PAF; eosinophils from patients with allergic rhinitis or allergic asthma; P<0.02
Description: (§1) Eosinophils were isolated and purified (>99% pure and >98% viable) from the blood of patients with allergic rhinitis or allergic asthma; a 2-week washout preceded blood collection.

[1] = test system: eosinophils / human umbilical endothelial cells (HUVECs); assay: TNFα-induced adhesion of 51Cr-labeled eosinophils to HUVECs; format: cell-based; conditions: 10 μM desloratadine; TNFA; P<0.02
Description: as §1

[2] = stability of free base versus acid addition salt; format: physicochemical; conditions: free base vs acid addition salt
[3] = test system: rhinitis due to pollen allergy; conditions: given over a two week period; patients with rhinitis due to pollen allergy; cited from earlier work

## Clc1ccc2c(c1)CCc1cccnc1C2=C1CCNCC1 [Desloratadine, desloratadine]
eosinophils
  maximum attenuation of PAF-induced eosinophil chemotaxis: 36%±8%
[1]
  maximum attenuation of TNFα-induced eosinophil adhesion to HUVECs: 27%±5%
[2]
  stability as the free base compared with an acid addition salt: more stable as the free base

## O=C(O)COCCN1CCN(C(c2ccccc2)c2ccc(Cl)cc2)CC1 (stereo not drawn) [cetirizine]
[3]
  ICAM-1 expression on nasal epithelial cells: reduced
  eosinophil counts: reduced
  rhinitis symptoms: reduced

## CCOC(=O)N1CCC(=C2c3ccc(Cl)cc3CCc3cccnc32)CC1 [loratadine]
[3]
  ICAM-1 expression on nasal epithelial cells: reduced
  eosinophil counts: reduced
  rhinitis symptoms: reduced
